According to patent US20230002397A1, “SMALL MOLECULE DEGRADERS OF HELIOS AND METODS OF USE” (DANA-FARBER CANCER INSTITUTE, INC., priority 2019, published 2023):

Biological target: T1, IKZF2 (Homo sapiens, UniProt Q96SW2+Q9UKS7)
T1 construct: CRISPR/Cas9—mediated insertion of the HiBiT peptide tag (Promega™) to the N-terminus of the IKZF2 gene locus; endogenous in cells; host or cells: MOLT4 cells, with CRISPR/Cas9 knock-in of HiBiT at the endogenous IKZF2 locus
Assay: HiBit-IKZF2 assay (HiBiT-Helios degradation in MOLT4 cells)
Format: cell-based
Conditions: for Dmax: MOLT-4, extent of degradation from highest to lowest concentration, 10 μM to 0.00026 μM, read-out: Dmax; for DC50: concentration at which 50% of HiBiT-Helios degradation was achieved
Description: The HiBiT protein tagging system was applied to MOLT4 cells via a CRISPR/Cas9—mediated insertion of the HiBiT peptide tag (Promega™) to the N-terminus of the IKZF2 gene locus (Neon™ Transfection System). The resulting HiBiT-Helios stable cell line was treated with the following compounds in triplicates following a 13-point concentration scheme ranging from 10 μM to 0.00026 μM. At the indicated timepoints, the Nano-Glo® HiBiT Lytic Detection System (Promega™) was utilized for detecting bioluminescence of the HiBiT tag in treated cells: abundance of the tag is proportionate to the level of luminescence. Following normalization to DMSO, dose-response curves were plotted (GraphPad Prism) to determine the concentration points at which 50% of HiBiT-Helios degradation was achieved by each compound. The extent of degradation (range of luminescence) from the highest to lowest concentration points was calculated to determine the Dmax.

T1 sequence (Q9UKS7 whole entry): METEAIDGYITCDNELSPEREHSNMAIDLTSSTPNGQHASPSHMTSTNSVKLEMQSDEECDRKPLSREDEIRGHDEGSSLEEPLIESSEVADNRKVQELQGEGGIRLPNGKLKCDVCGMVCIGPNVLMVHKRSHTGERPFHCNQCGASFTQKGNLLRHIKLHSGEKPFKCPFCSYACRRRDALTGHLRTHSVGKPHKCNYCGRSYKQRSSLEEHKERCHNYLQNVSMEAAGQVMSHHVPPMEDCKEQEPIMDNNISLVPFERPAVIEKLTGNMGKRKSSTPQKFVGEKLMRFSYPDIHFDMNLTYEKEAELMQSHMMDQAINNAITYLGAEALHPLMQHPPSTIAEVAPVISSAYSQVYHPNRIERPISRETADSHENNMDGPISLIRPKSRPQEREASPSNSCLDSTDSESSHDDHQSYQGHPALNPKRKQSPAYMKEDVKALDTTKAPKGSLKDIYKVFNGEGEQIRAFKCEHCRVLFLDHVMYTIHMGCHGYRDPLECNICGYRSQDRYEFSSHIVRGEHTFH
T1 sequence (Q96SW2 whole entry): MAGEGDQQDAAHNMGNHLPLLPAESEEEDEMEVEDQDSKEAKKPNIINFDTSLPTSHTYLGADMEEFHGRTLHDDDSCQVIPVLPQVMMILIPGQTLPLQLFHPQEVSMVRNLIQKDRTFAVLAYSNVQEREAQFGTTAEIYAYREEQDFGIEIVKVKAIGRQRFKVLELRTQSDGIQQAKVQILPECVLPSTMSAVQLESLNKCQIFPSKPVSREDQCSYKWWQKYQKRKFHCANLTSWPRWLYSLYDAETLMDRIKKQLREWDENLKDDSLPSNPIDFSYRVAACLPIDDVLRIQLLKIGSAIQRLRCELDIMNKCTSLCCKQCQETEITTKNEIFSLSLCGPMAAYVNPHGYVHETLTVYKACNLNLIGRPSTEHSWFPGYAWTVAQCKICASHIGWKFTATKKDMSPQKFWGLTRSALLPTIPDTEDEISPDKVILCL
T1 sequence (Q16531 whole entry partner): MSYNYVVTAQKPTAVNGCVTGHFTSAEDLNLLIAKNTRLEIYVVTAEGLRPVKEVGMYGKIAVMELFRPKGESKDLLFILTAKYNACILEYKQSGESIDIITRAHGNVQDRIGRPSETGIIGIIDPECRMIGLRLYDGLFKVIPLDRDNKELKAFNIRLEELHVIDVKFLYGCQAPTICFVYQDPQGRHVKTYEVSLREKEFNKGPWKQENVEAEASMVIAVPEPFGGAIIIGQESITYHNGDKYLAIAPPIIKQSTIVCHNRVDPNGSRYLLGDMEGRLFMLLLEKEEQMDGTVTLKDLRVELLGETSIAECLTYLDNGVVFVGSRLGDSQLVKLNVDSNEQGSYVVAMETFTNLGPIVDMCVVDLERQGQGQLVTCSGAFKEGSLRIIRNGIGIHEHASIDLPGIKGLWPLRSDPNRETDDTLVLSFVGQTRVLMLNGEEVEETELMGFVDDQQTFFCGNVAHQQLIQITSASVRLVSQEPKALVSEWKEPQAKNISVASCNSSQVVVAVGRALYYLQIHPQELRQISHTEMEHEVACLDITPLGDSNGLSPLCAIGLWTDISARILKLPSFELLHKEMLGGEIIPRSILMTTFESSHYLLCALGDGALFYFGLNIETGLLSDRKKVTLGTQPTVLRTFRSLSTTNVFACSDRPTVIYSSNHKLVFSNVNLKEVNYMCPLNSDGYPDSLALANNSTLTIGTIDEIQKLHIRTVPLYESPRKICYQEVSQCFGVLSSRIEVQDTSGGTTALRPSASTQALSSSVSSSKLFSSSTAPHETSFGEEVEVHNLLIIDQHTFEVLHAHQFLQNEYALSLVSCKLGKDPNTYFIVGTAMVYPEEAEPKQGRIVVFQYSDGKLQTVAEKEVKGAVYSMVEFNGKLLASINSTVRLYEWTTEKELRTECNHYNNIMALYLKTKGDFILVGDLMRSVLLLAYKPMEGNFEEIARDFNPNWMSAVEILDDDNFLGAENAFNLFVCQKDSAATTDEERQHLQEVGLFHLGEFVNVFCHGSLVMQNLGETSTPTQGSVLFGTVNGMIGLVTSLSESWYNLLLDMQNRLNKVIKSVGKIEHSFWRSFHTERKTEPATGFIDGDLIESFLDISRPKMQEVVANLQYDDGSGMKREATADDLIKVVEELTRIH

| SMILES | Dmax | DC50 |
| --- | --- | --- |
| O=C1CCC(N2Cc3cc(C4CCN(Cc5cccc(N6CCC7(CC7)C6=O)c5)CC4)ccc3C2=O)C(=O)N1 (stereo not shown) [Compound 10] | 30 to 50% | 10 to 30 nM |
| O=C1CCC(N2Cc3cc(C4(O)CCN(Cc5csc(-c6ccccc6)n5)CC4)ccc3C2=O)C(=O)N1 (stereo not shown) [Compound 33] | > 70% | < 10 nM |
| O=C1CCC(N2Cc3cc(C4CCN(Cc5cccc(Nc6ccccn6)c5)CC4)ccc3C2=O)C(=O)N1 (stereo not shown) [Compound 42, 3-(1-oxo-5-(1-(3-(pyridin-2-ylamino)benzyl)piperidin-4-yl)isoindolin-2-yl)piperidine-2,6-dione] | 50 to 70% | < 10 nM |
| O=C1CCC(N2Cc3cc(C4CCN(Cc5ccnc(Oc6ccccc6)c5)CC4)ccc3C2=O)C(=O)N1 (stereo not shown) [Compound 43, 3-(1-oxo-5-(1-((2-phenoxypyridin-4-yl)methyl)piperidin-4-yl)isoindolin-2-yl)piperidine-2,6-dione] | 50 to 70% | 30 to 150 nM |
| N#CC1(COc2ccc(CN3CCC(c4ccc5c(c4)CN(C4CCC(=O)NC4=O)C5=O)CC3)cc2)CC1 (stereo not shown) [Compound 45, 1-((4-((4-(2-(2,6-dioxopiperidin-3-yl)-1-oxoisoindolin-5-yl)piperidin-1-yl)methyl)phenoxy)methyl)cyclopropane-1-carbonitrile] | 50 to 70% | 10 to 30 nM |
| O=C1CCC(N2Cc3cc(C4CCN(Cc5ccc(S(=O)(=O)N6CC7C(C6)C7(F)F)cc5)CC4)ccc3C2=O)C(=O)N1 (stereo not shown) [Compound 58] | 30 to 50% | 10 to 30 nM |
| O=C1CCC(N2Cc3cc(C4CCN(Cc5cccc(S(=O)(=O)N6CC7C(C6)C7(F)F)c5)CC4)ccc3C2=O)C(=O)N1 (stereo not shown) [Compound 59] | 50 to 70% | < 10 nM |
| O=C1CCC(N2Cc3cc(C4CCN(Cc5cccc(S(=O)(=O)N6CCOc7ccccc76)c5)CC4)ccc3C2=O)C(=O)N1 (stereo not shown) [Compound 84] | 50 to 70% | 30 to 150 nM |
| O=C1CCC(N2Cc3cc(C4CCN(Cc5cccc(C(=O)Nc6ccccc6)c5)CC4)ccc3C2=O)C(=O)N1 (stereo not shown) [Compound 86, 3-((4-(2-(2,6-dioxopiperidin-3-yl)-1-oxoisoindolin-5-yl)piperidin-1-yl)methyl)-N-phenylbenzamide] | 50 to 70% | < 10 nM |
| CN(c1ccccc1)S(=O)(=O)c1ccc(CN2CCC(c3ccc4c(c3)CN(C3CCC(=O)NC3=O)C4=O)CC2)cc1 (stereo not shown) [Compound 92] | 50 to 70% | < 10 nM |
| CN(c1ccccn1)S(=O)(=O)c1ccc(CN2CCC(c3ccc4c(c3)CN(C3CCC(=O)NC3=O)C4=O)CC2)cc1 (stereo not shown) [Compound 99] | 30 to 50% | 30 to 150 nM |
| O=C1CCC(N2Cc3cc(C4CCN(Cc5nccc(Nc6ccccc6)c5F)CC4)ccc3C2=O)C(=O)N1 (stereo not shown) [Compound 100] | 50 to 70% | 10 to 30 nM |
| O=C1CCC(N2Cc3cc(C4CCN(Cc5nccc(Nc6ccccn6)n5)CC4)ccc3C2=O)C(=O)N1 (stereo not shown) [Compound 102] | 50 to 70% | 10 to 30 nM |
| O=C1CCC(N2Cc3cc(C4CCN(Cc5ccccc5C(=O)N5CC6C(C5)C6(F)F)CC4)ccc3C2=O)C(=O)N1 (stereo not shown) [Compound 111] | 30 to 50% | 30 to 150 nM |
| O=C1CCC(N2Cc3cc(C4CCN(Cc5cccc(N6C(=O)Cc7cccnc76)c5)CC4)ccc3C2=O)C(=O)N1 (stereo not shown) [Compound 118] | 30 to 50% | 30 to 150 nM |
| O=C1CCC(N2Cc3cc(C4CCN(Cc5cccnc5Oc5ccccc5)CC4)ccc3C2=O)C(=O)N1 (stereo not shown) [Compound 119] | 30 to 50% | 30 to 150 nM |
| O=C1CCC(N2Cc3cc(C4CCN(Cc5cccc6c5C(=O)N(c5ccccc5)C6)CC4)ccc3C2=O)C(=O)N1 (stereo not shown) [Compound 121] | 30 to 50% | 30 to 150 nM |
| O=C1CCC(N2Cc3cc(C4CCN(Cc5ccnc(Nc6ccccc6)n5)CC4)ccc3C2=O)C(=O)N1 (stereo not shown) [Compound 122] | 30 to 50% | 10 to 30 nM |
| O=C1CCC(N2Cc3cc(C4CCN(Cc5ccc6c(c5)CN(c5ccccc5)C6=O)CC4)ccc3C2=O)C(=O)N1 (stereo not shown) [Compound 123] | 50 to 70% | 10 to 30 nM |
| O=C1CCC(N2Cc3cc(C4CCN(Cc5cccc6c5CN(c5ccccn5)C6=O)CC4)ccc3C2=O)C(=O)N1 (stereo not shown) [Compound 124] | 50 to 70% | 10 to 30 nM |
| O=C1CCC(N2Cc3cc(C4CCN(Cc5cccc(N6Cc7ncccc7C6=O)c5)CC4)ccc3C2=O)C(=O)N1 (stereo not shown) [Compound 125] | 50 to 70% | < 10 nM |
| O=C1CCC(N2Cc3cc(C4CCN(Cc5ccnc(Nc6ccccc6)c5F)CC4)ccc3C2=O)C(=O)N1 (stereo not shown) [Compound 126] | 50 to 70% | 10 to 30 nM |
| O=C1CCC(N2Cc3cc(C4CCN(Cc5cccc(N6Cc7cccnc7C6=O)c5)CC4)ccc3C2=O)C(=O)N1 (stereo not shown) [Compound 129] | 50 to 70% | 10 to 30 nM |
| O=C1CCC(N2Cc3cc(C4CCN(Cc5ccnc(C(=O)Nc6ccccn6)c5)CC4)ccc3C2=O)C(=O)N1 (stereo not shown) [Compound 130] | 50 to 70% | 10 to 30 nM |
| O=C1CCC(N2Cc3cc(C4CCN(Cc5ccnc(C(=O)Nc6ccccc6)c5)CC4)ccc3C2=O)C(=O)N1 (stereo not shown) [Compound 131] | 50 to 70% | 30 to 150 nM |
| O=C1CCC(N2Cc3cc(C4CCN(Cc5cccc(Nc6ccc(F)cn6)c5)CC4)ccc3C2=O)C(=O)N1 (stereo not shown) [Compound 132] | 50 to 70% | < 10 nM |
| O=C1CCC(N2Cc3cc(C4CCN(Cc5cccc(Nc6ncccc6F)c5)CC4)ccc3C2=O)C(=O)N1 (stereo not shown) [Compound 133] | 50 to 70% | < 10 nM |

Further lines, results first:

| Dmax | DC50 | SMILES |
| --- | --- | --- |
| 50 to 70% | < 10 nM | O=C1CCC(N2Cc3cc(C4CCN(Cc5cccc(Nc6ccccc6)c5)CC4)ccc3C2=O)C(=O)N1 (stereo not shown) [Compound 46, 3-(1-oxo-5-(1-(3-(phenylamino)benzyl)piperidin-4-yl)isoindolin-2-yl)piperidine-2,6-dione] |
| 50 to 70% | 30 to 150 nM | O=C1CCC(N2Cc3cc(C4CCN(Cc5cccc(N6CCN(c7ccccc7)C6=O)c5)CC4)ccc3C2=O)C(=O)N1 (stereo not shown) [Compound 48] |
| 50 to 70% | 10 to 30 nM | O=C1CCC(N2Cc3cc(C4CCN(Cc5cccc(NC(=O)c6ccccc6)c5)CC4)ccc3C2=O)C(=O)N1 (stereo not shown) [Compound 50] |
| 50 to 70% | < 10 nM | O=C1CCC(N2Cc3cc(C4CCN(Cc5cccc(N6Cc7ccccc7C6=O)c5)CC4)ccc3C2=O)C(=O)N1 (stereo not shown) [Compound 51] |
| 50 to 70% | 10 to 30 nM | O=C1CCC(N2Cc3cc(C4CCN(Cc5cccc(S(=O)(=O)N6CCC7(CC7)C6)c5)CC4)ccc3C2=O)C(=O)N1 (stereo not shown) [Compound 60] |
| 50 to 70% | 30 to 150 nM | O=C1CCC(N2Cc3cc(C4CCN(Cc5cccc(S(=O)(=O)N6CC7(COC7)C6)c5)CC4)ccc3C2=O)C(=O)N1 (stereo not shown) [Compound 62] |
| 30 to 50% | 30 to 150 nM | O=C1CCC(N2Cc3cc(C4CCN(Cc5ccc6c(c5)S(=O)(=O)N(c5ccccc5)C6)CC4)ccc3C2=O)C(=O)N1 (stereo not shown) [Compound 80] |
| 50 to 70% | < 10 nM | O=C1CCC(N2Cc3cc(C4CCN(Cc5ccc(S(=O)(=O)Nc6ccccc6)cc5)CC4)ccc3C2=O)C(=O)N1 (stereo not shown) [Compound 91] |
| 50 to 70% | < 10 nM | O=C1CCC(N2Cc3cc(C4CCN(Cc5cccc(N6C(=O)Cc7ccccc76)c5)CC4)ccc3C2=O)C(=O)N1 (stereo not shown) [Compound 95] |
| 30 to 50% | 10 to 30 nM | O=C1CCC(N2Cc3cc(C4CCN(Cc5cccc(N6CCCCS6(=O)=O)c5)CC4)ccc3C2=O)C(=O)N1 (stereo not shown) [Compound 97] |
| 50 to 70% | < 10 nM | CN(c1ccccc1)S(=O)(=O)c1cccc(CN2CCC(c3ccc4c(c3)CN(C3CCC(=O)NC3=O)C4=O)CC2)c1 (stereo not shown) [Compound 98] |
| 30 to 50% | 10 to 30 nM | O=C1CCC(N2Cc3cc(C4CCN(Cc5cccc(Nc6ccccn6)n5)CC4)ccc3C2=O)C(=O)N1 (stereo not shown) [Compound 101] |
| 50 to 70% | < 10 nM | O=C1CCC(N2Cc3cc(C4CCN(Cc5ccc6c(c5)C(=O)N(c5ccccc5)CC6)CC4)ccc3C2=O)C(=O)N1 (stereo not shown) [Compound 105, 3-(1-oxo-5-(1-((1-oxo-2-phenyl-1,2,3,4-tetrahydroisoquinolin-7-yl)methyl)piperidin-4-yl)isoindolin-2-yl)piperidine-2,6-dione] |
| 30 to 50% | < 10 nM | O=C1CCC(N2Cc3cc(C4CCN(Cc5cccc6c5CN(c5ccccc5)C6=O)CC4)ccc3C2=O)C(=O)N1 (stereo not shown) [Compound 113] |
| 50 to 70% | < 10 nM | O=C1CCC(N2Cc3cc(C4CCN(Cc5ccnc(Nc6ccccn6)c5)CC4)ccc3C2=O)C(=O)N1 (stereo not shown) [Compound 115] |
| 30 to 50% | 30 to 150 nM | O=C1CCC(N2Cc3cc(C4CCN(Cc5cc(Nc6ccccc6)ncn5)CC4)ccc3C2=O)C(=O)N1 (stereo not shown) [Compound 116] |
| 30 to 50% | 30 to 150 nM | O=C1CCC(N2Cc3cc(C4CCN(Cc5ccccc5N5Cc6ccccc6C5=O)CC4)ccc3C2=O)C(=O)N1 (stereo not shown) [Compound 117] |
| 50 to 70% | 10 to 30 nM | O=C1CCC(N2Cc3cc(C4CCN(Cc5ccccc5Nc5ccccn5)CC4)ccc3C2=O)C(=O)N1 (stereo not shown) [Compound 120] |
| 50 to 70% | 10 to 30 nM | O=C1CCC(N2Cc3cc(C4CCN(Cc5cccc(Nc6cccnn6)c5)CC4)ccc3C2=O)C(=O)N1 (stereo not shown) [Compound 127] |
| 50 to 70% | < 10 nM | CP(C)(=O)c1ccccc1Nc1cccc(CN2CCC(c3ccc4c(c3)CN(C3CCC(=O)NC3=O)C4=O)CC2)c1 (stereo not shown) [Compound 134] |
